In brackets after ≈: the same amount, converted by molar mass.
Assays:
Type in all cases: cell-based
[1] = system: Staphylococcus aureus FDA 209PJc-1; test: Antibacterial activity, agar-dilution MIC, organism No. 1; conditions: Staphylococcus aureus, FDA209PJC1; Organism No. 1, bouillon-agar; read-out: Minimum Inhibitory Concentration
Method in brief: (§1)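 Dilution in agar (bouillon-agar base) is the format; activity is expressed as MIC, μg per ml medium.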

[2] = system: Staphylococcus aureus Terajima; test: Antibacterial activity, agar-dilution MIC, organism No. 2; conditions: Staphylococcus aureus; Organism No. 2, bouillon-agar; read-out: Minimum Inhibitory Concentration
Method in brief: as §1

[3] = system: Staphylococcus aureus MS 353; test: Antibacterial activity, agar-dilution MIC, organism No. 3; conditions: Staphylococcus aureus, MS353; Organism No. 3, bouillon-agar; read-out: Minimum Inhibitory Concentration
Method in brief: as §1

[4] = system: Streptococcus pyogenes Cook; test: Antibacterial activity, agar-dilution MIC, organism No. 4; conditions: Streptococcus pyogenes; Organism No. 4, bouillon-agar; read-out: Minimum Inhibitory Concentration
Method in brief: as §1

[5] = system: Escherichia coli NIHJ-JC-2; test: Antibacterial activity, agar-dilution MIC, organism No. 5; conditions: Escherichia coli, NIHJJC2; Organism No. 5, bouillon-agar; read-out: Minimum Inhibitory Concentration
Method in brief: as §1

[6] = system: Escherichia coli K12 C600 IAM 1264; test: Antibacterial activity, agar-dilution MIC, organism No. 6; conditions: Escherichia coli, IAM1264; Organism No. 6, bouillon-agar; read-out: Minimum Inhibitory Concentration
Method in brief: as §1

[7] = system: Klebsiella pneumoniae PCI-602; test: Antibacterial activity, agar-dilution MIC, organism No. 7; conditions: Klebsiella pneumoniae, PCI602; Organism No. 7, bouillon-agar; read-out: Minimum Inhibitory Concentration
Method in brief: as §1

[8] = system: Salmonella typhimurium IID 971; test: Antibacterial activity, agar-dilution MIC, organism No. 8; conditions: Salmonella enterica; Organism No. 8, bouillon-agar; read-out: Minimum Inhibitory Concentration
Method in brief: as §1

Salmonella typhi 901 = test: Antibacterial activity, agar-dilution MIC, organism No. 9; conditions: Salmonella enterica, TYPHI, read-out: Minimum Inhibitory Concentration
Method in brief: as §1

[9] = system: Salmonella paratyphi-A 1015; test: Antibacterial activity, agar-dilution MIC, organism No. 10; conditions: Salmonella enterica, PARATYPHI, read-out: Minimum Inhibitory Concentration
Method in brief: as §1

[10] = system: Salmonella shottmuelleri 8006; test: Antibacterial activity, agar-dilution MIC, organism No. 11; conditions: Salmonella, 8006; Organism No. 11, bouillon-agar; read-out: Minimum Inhibitory Concentration
Method in brief: as §1

[11] = system: Salmonella enteritidis G 14; test: Antibacterial activity, agar-dilution MIC, organism No. 12; conditions: Salmonella enterica, ENTERITIDIS; Organism No. 12, bouillon-agar; read-out: Minimum Inhibitory Concentration
Method in brief: as §1

[12] = system: Serratia marcescens IAM 1184; test: Antibacterial activity, agar-dilution MIC, organism No. 13; conditions: Serratia marcescens, IAM1184; Organism No. 13, bouillon-agar; read-out: Minimum Inhibitory Concentration
Method in brief: as §1

[13] = system: Bacillus subtilis ATCC 6633; test: Antibacterial activity, agar-dilution MIC, organism No. 14; conditions: Bacillus subtilis, ATCC6633; Organism No. 14, bouillon-agar; read-out: Minimum Inhibitory Concentration
Method in brief: as §1

[14] = system: Pseudomonas aeruginosa IFO 3445; test: Antibacterial activity, agar-dilution MIC, organism No. 15; conditions: Pseudomonas aeruginosa, IFO3445; Organism No. 15, bouillon-agar; read-out: Minimum Inhibitory Concentration
Method in brief: as §1

[15] = system: Pseudomonas aeruginosa NCTC 10490; test: Antibacterial activity, agar-dilution MIC, organism No. 16; conditions: Pseudomonas aeruginosa, NCTC10490; Organism No. 16, bouillon-agar; read-out: Minimum Inhibitory Concentration
Method in brief: as §1

[16] = system: Pseudomonas aeruginosa PAO 1; test: Antibacterial activity, agar-dilution MIC, organism No. 17; conditions: Pseudomonas aeruginosa, PAO1; Organism No. 17, bouillon-agar; read-out: Minimum Inhibitory Concentration
Method in brief: as §1

[17] = system: Proteus morganii IFO 3848; test: Antibacterial activity, agar-dilution MIC, organism No. 18; conditions: Morganella morganii, IFO3848; Organism No. 18, bouillon-agar; read-out: Minimum Inhibitory Concentration
Method in brief: as §1

[18] = system: Proteus mirabilis IFO 3849; test: Antibacterial activity, agar-dilution MIC, organism No. 19; conditions: Proteus mirabilis, IFO3849; Organism No. 19, bouillon-agar; read-out: Minimum Inhibitory Concentration
Method in brief: as §1

Proteus vulgaris OX-19 = test: Antibacterial activity, agar-dilution MIC, organism No. 20; conditions: Proteus vulgaris, OX19; Organism No. 20, bouillon-agar; read-out: Minimum Inhibitory Concentration
Method in brief: as §1

Proteus vulgaris HX-19 = test: Antibacterial activity, agar-dilution MIC, organism No. 21; conditions: Proteus vulgaris, HX19; Organism No. 21, bouillon-agar; read-out: Minimum Inhibitory Concentration
Method in brief: as §1

[19] = system: Proteus rettgeri IFO 3850; test: Antibacterial activity, agar-dilution MIC, organism No. 22; conditions: Providencia rettgeri, IFO3850; Organism No. 22, bouillon-agar; read-out: Minimum Inhibitory Concentration
Method in brief: as §1

[20] = system: Enterobacter aerogenes ATCC 13048; test: Antibacterial activity, agar-dilution MIC, organism No. 23; conditions: Klebsiella aerogenes, ATCC13048; Organism No. 23, bouillon-agar; read-out: Minimum Inhibitory Concentration
Method in brief: as §1

Enterobacter cloacae 963 = test: Antibacterial activity, agar-dilution MIC, organism No. 24; conditions: Enterobacter cloacae, 963; Organism No. 24, bouillon-agar; read-out: Minimum Inhibitory Concentration
Method in brief: as §1

[21] = system: Micrococcus luteus ATCC 9341; test: Antibacterial activity, agar-dilution MIC, organism No. 25; conditions: Micrococcus luteus, ATCC9341; Organism No. 25, bouillon-agar; read-out: Minimum Inhibitory Concentration
Method in brief: as §1

[22] = system: Streptococcus pyogenes IFO 3340; test: Antibacterial activity, agar-dilution MIC, organism No. 26; conditions: Streptococcus pyogenes, IFO3340; Organism No. 26, bouillon-agar; read-out: Minimum Inhibitory Concentration
Method in brief: as §1

[23] = system: Streptococcus faecium IFO 3826; test: Antibacterial activity, agar-dilution MIC, organism No. 27; conditions: Enterococcus faecium, IFO3826; Organism No. 27, bouillon-agar; read-out: Minimum Inhibitory Concentration
Method in brief: as §1

[24] = system: Mycoplasma pneumoniae IID817; test: Antimycoplasmal activity, MIC by phenol red colour change, organism No. 28; conditions: Mycoplasma, IID817; Organism No. 28, PPLO broth + 1% glucose, 37° C.; read-out: Minimum Inhibitory Concentration (MIC)
Procedure: Mycoplasma pneumoniae IID817 was used as the test microorganism in a culture medium prepared by adding 1% of glucose to "PPLO broth (manufactured by Difco Co.) liquid culture medium" at 37° C. with phenol red as an indicator, thereby culturing the test microorganism.

[25] = system: Candida albicans IAM 4905; test: Antifungal activity, agar-dilution MIC, organism No. 29; conditions: Candida albicans, IAM4905; Organism No. 29, bouillon-agar; read-out: Minimum Inhibitory Concentration
Method in brief: as §1

[26] = system: Aspergillus niger IFO 6342; test: Antifungal activity, agar-dilution MIC, organism No. 30; conditions: Aspergillus niger, IFO6342; Organism No. 30, bouillon-agar; read-out: Minimum Inhibitory Concentration
Method in brief: as §1

Structure (SMILES)	MIC [1] [µg/mL]	MIC [2] [µg/mL]	MIC [3] [µg/mL]	MIC [4] [µg/mL]	MIC [5] [µg/mL]	MIC [6] [µg/mL]	MIC [7] [µg/mL]	MIC [8] [µg/mL]	MIC (Salmonella typhi 901) [µg/mL]	MIC [9] [µg/mL]	MIC [10] [µg/mL]	MIC [11] [µg/mL]	MIC [12] [µg/mL]	MIC [13] [µg/mL]	MIC [14] [µg/mL]	MIC [15] [µg/mL]	MIC [16] [µg/mL]	MIC [17] [µg/mL]	MIC [18] [µg/mL]	MIC (Proteus vulgaris OX-19) [µg/mL]	other results
[C-]#[N+]C12CC3(/C=C/C(=O)OCc4cccc(OC)c4)OC3C1O2 (stereo not drawn) [compound 12]	1.56 (≈ 4.98 µM)	3.13 (≈ 9.99 µM)	0.78 (≈ 2.49 µM)	3.13 (≈ 9.99 µM)	6.25 (≈ 19.9 µM)	6.25 (≈ 19.9 µM)	0.39 (≈ 1.24 µM)	6.25 (≈ 19.9 µM)	3.13 (≈ 9.99 µM)	3.13 (≈ 9.99 µM)	3.13 (≈ 9.99 µM)	3.13 (≈ 9.99 µM)	12.5 (≈ 39.9 µM)	1.56 (≈ 4.98 µM)	> 100	> 100	> 100	1.56 (≈ 4.98 µM)	3.13 (≈ 9.99 µM)	0.78 (≈ 2.49 µM)	MIC (Proteus vulgaris HX-19): < 0.1 µg/mL; MIC [19]: > 100 µg/mL; MIC [20]: > 100 µg/mL; MIC (Enterobacter cloacae 963): > 100 µg/mL; MIC [21]: < 0.1 µg/mL; MIC [22]: 3.13 µg/mL (≈ 9.99 µM); MIC [23]: 3.13 µg/mL (≈ 9.99 µM); MIC [24]: 0.4 µg/mL; MIC [25]: 1.56 µg/mL (≈ 4.98 µM); MIC [26]: 3.13 µg/mL (≈ 9.99 µM)
[C-]#[N+]C12CC3(/C=C/C(N)=O)OC3C1O2 (stereo not drawn) [Compound No. 19]	6.25 (≈ 32.5 µM)	25 (≈ 130 µM)	6.25 (≈ 32.5 µM)	100 (≈ 520 µM)	6.25 (≈ 32.5 µM)	6.25 (≈ 32.5 µM)	12.5 (≈ 65 µM)	12.5 (≈ 65 µM)	1.56 (≈ 8.12 µM)	6.25 (≈ 32.5 µM)	12.5 (≈ 65 µM)	3.13 (≈ 16.3 µM)	50 (≈ 260 µM)	50 (≈ 260 µM)	100 (≈ 520 µM)	> 200	200 (≈ 1040 µM)	3.13 (≈ 16.3 µM)	50 (≈ 260 µM)	3.13 (≈ 16.3 µM)	MIC (Proteus vulgaris HX-19): 1.56 µg/mL (≈ 8.12 µM); MIC [19]: 6.25 µg/mL (≈ 32.5 µM); MIC [20]: 100 µg/mL (≈ 520 µM); MIC (Enterobacter cloacae 963): 6.25 µg/mL (≈ 32.5 µM); MIC [21]: 25 µg/mL (≈ 130 µM); MIC [22]: 6.25 µg/mL (≈ 32.5 µM); MIC [23]: 100 µg/mL (≈ 520 µM); MIC [24]: < 0.2 µg/mL; MIC [25]: 12.5 µg/mL (≈ 65 µM); MIC [26]: 6.25 µg/mL (≈ 32.5 µM)
[C-]#[N+]C12CC3(/C=C/C(=O)OCC(C)C)OC3C1O2 (stereo not drawn) [compound 18]	0.39 (≈ 1.56 µM)	12.5 (≈ 50.1 µM)	3.13 (≈ 12.6 µM)	0.78 (≈ 3.13 µM)	12.5 (≈ 50.1 µM)	12.5 (≈ 50.1 µM)	1.56 (≈ 6.26 µM)	12.5 (≈ 50.1 µM)	3.13 (≈ 12.6 µM)	1.56 (≈ 6.26 µM)	0.78 (≈ 3.13 µM)	6.25 (≈ 25.1 µM)	200 (≈ 802 µM)	0.78 (≈ 3.13 µM)	> 200	200 (≈ 802 µM)	> 200	3.13 (≈ 12.6 µM)	6.25 (≈ 25.1 µM)	0.2 (≈ 0.802 µM)	MIC (Proteus vulgaris HX-19): 0.1 µg/mL (≈ 0.401 µM); MIC [19]: 100 µg/mL (≈ 401 µM); MIC [20]: > 200 µg/mL; MIC (Enterobacter cloacae 963): 200 µg/mL (≈ 802 µM); MIC [21]: 1.56 µg/mL (≈ 6.26 µM); MIC [22]: 1.56 µg/mL (≈ 6.26 µM); MIC [23]: 12.5 µg/mL (≈ 50.1 µM); MIC [24]: < 0.2 µg/mL; MIC [25]: 0.2 µg/mL (≈ 0.802 µM); MIC [26]: 0.78 µg/mL (≈ 3.13 µM)
[C-]#[N+]C12CC3(/C=C/C(=O)NOCc4ccccc4)OC3C1O2 (stereo not drawn) [compound 82]	< 0.05	0.2 (≈ 0.67 µM)	< 0.05	0.78 (≈ 2.61 µM)	12.5 (≈ 41.9 µM)	12.5 (≈ 41.9 µM)	0.39 (≈ 1.31 µM)	6.25 (≈ 21 µM)	0.78 (≈ 2.61 µM)	0.78 (≈ 2.61 µM)	0.78 (≈ 2.61 µM)	0.78 (≈ 2.61 µM)	> 200	6.25 (≈ 21 µM)	> 200	> 200	> 200	0.78 (≈ 2.61 µM)	> 200	0.2 (≈ 0.67 µM)	MIC (Proteus vulgaris HX-19): 0.1 µg/mL (≈ 0.335 µM); MIC [19]: > 200 µg/mL; MIC [20]: > 200 µg/mL; MIC (Enterobacter cloacae 963): > 200 µg/mL; MIC [21]: 12.5 µg/mL (≈ 41.9 µM); MIC [22]: 1.56 µg/mL (≈ 5.23 µM); MIC [23]: 1.56 µg/mL (≈ 5.23 µM); MIC [24]: < 0.2 µg/mL; MIC [25]: 0.39 µg/mL (≈ 1.31 µM); MIC [26]: 3.13 µg/mL (≈ 10.5 µM)
